Where two headings read alike, the source gives them in different places. One block for each compound: values may come before it.
Columns and labels:
Assay type in all cases: cell-based
RPMI 7666 cells = assay: sulforhodamine B cytotoxicity assay, 72 hour drug exposure, RPMI 7666
Experimental: (§1) These studies were performed using a sulforrhodamine B assay (see Monks et al., J. Natl. Cancer Inst. (U.S.) 83:757 ([…])). Compounds were dissolved in ethanol. Results from these studies, presented in the following tables, are expressed as Gl50 values, that is, concentration of a drug (micromolar) required to inhibit growth of fifty percent of the cells.

LEWIS LUNG cells = assay: sulforhodamine B cytotoxicity assay, 72 hour drug exposure, Lewis lung
C3H10T1/2 cells = assay: sulforhodamine B cytotoxicity assay, 72 hour drug exposure, C3H10T1/2; settings: Mus musculus, C3H 10T1/2
Experimental: as §1

U937 cells = assay: sulforhodamine B cytotoxicity assay, 72 hour drug exposure, U937; settings: Homo sapiens, U-937
Experimental: as §1

A549 cells [1] = assay: sulforhodamine B cytotoxicity assay, 72 hour drug exposure, A549
MCF7/ADR cells = assay: sulforhodamine B cytotoxicity assay, 72 hour drug exposure, MCF7/ADR
HT 29 cells = assay: sulforhodamine B cytotoxicity assay, 72 hour drug exposure, HT 29
OVCAR 3 cells = assay: sulforhodamine B cytotoxicity assay, 72 hour drug exposure, OVCAR 3; settings: Homo sapiens, OVCAR-3, 72 h
MCF7 cells = assay: sulforhodamine B cytotoxicity assay, 72 hour drug exposure, MCF7
CAKI 1 cells = assay: sulforhodamine B cytotoxicity assay, 72 hour drug exposure, CAKI 1
SKMEL 28 cells = assay: sulforhodamine B cytotoxicity assay, 72 hour drug exposure, SKMEL 28
A549 cells [2] = assay: in vitro sensitivity at different drug exposure times, A549; settings: Homo sapiens
Experimental: as §1

MCF 7/ADR cells = assay: in vitro sensitivity at different drug exposure times, MCF 7/ADR; settings: Homo sapiens, NCI/ADR-RES
Experimental: as §1

U-937 cells [3] = assay: % survival, trypan blue assay, with serum, U-937; settings: bioactive lipid dose = 20 uM
RPMI-7666 cells [4] = assay: % survival, trypan blue exclusion assay, without serum, RPMI-7666; settings: bioactive lipid dose = 20 uM, 2880 min
P388/ADR cells = assay: sulforhodamine B cytotoxicity assay, 72 hour drug exposure, P388/ADR; settings: Mus musculus
Experimental: as §1

P-388 cells [5] = assay: % survival, trypan blue exclusion assay, without serum, P-388; settings: bioactive lipid dose = 20 uM, 2880 min
RPMI-7666 cells [6] = assay: % survival, trypan blue assay, with serum, RPMI-7666; settings: bioactive lipid dose = 20 uM
P388 cells = assay: sulforhodamine B cytotoxicity assay, 72 hour drug exposure, P388; settings: Mus musculus
Experimental: as §1

P-388 cells [7] = assay: % survival, trypan blue assay, with serum, P-388; settings: bioactive lipid dose = 20 uM
U-937 cells [8] = assay: % survival, trypan blue exclusion assay, without serum, U-937; settings: bioactive lipid dose = 20 uM, 2880 min
[9] = Homo sapiens, NCI/ADR-RES, 72 h

Structure (SMILES): CCCCCCCCCCCCC/C=C/[C@@H](OC(=O)CCC)[C@H](CO[Si](C)(C)C(C)(C)C)NC(=O)CCCCC [1-TBDMS-3-Butyrate C6-Cer, 1-TBDMS,3-butyrate, C6-Cer]
GI50 (RPMI 7666 cells): > 200 µM | GI50 (LEWIS LUNG cells; Lewis lung carcinoma): > 200 µM | GI50 (C3H10T1/2 cells): > 200 µM | GI50 (U937 cells): > 200 µM | GI50 (A549 cells [1]; Homo sapiens): > 200 µM

Structure (SMILES): CCCCCCCCCCCCC/C=C/C(=O)[C@H](COC(C)=O)NC(=O)CCCCC [1-Acetate-3-one C6-Cer, 1-acetate-3-one C6-Cer]
GI50 (MCF7/ADR cells; [9]): 14.7 ± 0.1 µM | GI50 (LEWIS LUNG cells; Lewis lung carcinoma, 72 h): 14.5 ± 0.1 µM | GI50 (HT 29 cells; Homo sapiens, HT-29, 72 h): 13.9 ± 0.2 µM | GI50 (OVCAR 3 cells): 15.3 ± 0.1 µM | GI50 (MCF7 cells; Homo sapiens, MCF7, 72 h): 6.7 ± 0.1 µM | GI50 (A549 cells [1]; Homo sapiens, A549, 72 h): 14.4 ± 0.1 µM

Structure (SMILES): CCCCCCCCCCCCC/C=C/[C@@H](OC(C)=O)[C@H](COC(C)=O)NC(=O)CCCCC [1,3-Diacetate C6-Ceramide]
GI50 (MCF7/ADR cells; [9]): 42.9 ± 3.6 µM | GI50 (LEWIS LUNG cells; Lewis lung carcinoma, 72 h): 4.9 ± 0.5 µM | GI50 (MCF7 cells; Homo sapiens, MCF7, 72 h): 15.5 ± 0.2 µM | GI50 (A549 cells [1]; Homo sapiens, A549, 72 h): 6.1 ± 1.1 µM

Structure (SMILES): CCCCCCCCCCCCC/C=C/[C@@H](O)[C@H](CO)NCCCC [N-C4 Sphingosine, N-C4 sphingosine]
GI50 (MCF7/ADR cells; [9]): 9.6 ± 0.47 µM | GI50 (LEWIS LUNG cells; Lewis lung carcinoma, 72 h): 5.08 ± 0.13 µM | GI50 (CAKI 1 cells; Homo sapiens, CAKI-1, 72 h): 6.88 ± 0.52 µM | GI50 (HT 29 cells; Homo sapiens, HT-29, 72 h): 6.49 ± 0.11 µM | GI50 (OVCAR 3 cells): 14.1 ± 0.35 µM | GI50 (SKMEL 28 cells; Homo sapiens, SK-MEL-28, 72 h): 6.13 ± 1.03 µM | GI50 (MCF7 cells; Homo sapiens, MCF7, 72 h): 4.88 ± 0.03 µM | GI50 (A549 cells [1]; Homo sapiens, A549, 72 h): 4.9 ± 0.1 µM

GI50 (A549 cells [2]; 1 hour pulse): > 100 µM | GI50 (A549 cells [2]; 4 hour pulse): 52.9 ± 2.5 µM | GI50 (A549 cells [2]; 8 hour pulse): 36.5 ± 0.8 µM | GI50 (A549 cells [2]; 24 hour pulse): 8.6 ± 0.6 µM | GI50 (A549 cells [2]; 48 hour pulse): 4.7 ± 0.1 µM | GI50 (A549 cells [2]; 72 hour continuous exposure): 5.5 ± 0.2 µM
Structure (SMILES): CCCCCCCCCCCCC/C=C/[C@@H](O)[C@H](COC(=O)CCC)NC(=O)CCCCC [1-Butyrate C6-Ceramide, 1-butyrate, C6-ceramide]
GI50 (MCF7/ADR cells; [9]): 37.8 ± 8.06 µM | GI50 (LEWIS LUNG cells; Lewis lung carcinoma, 72 h): 6.4 ± 2.4 µM | GI50 (MCF7 cells; Homo sapiens, MCF7, 72 h): 17.9 ± 10 µM | GI50 (A549 cells [1]; Homo sapiens, A549, 72 h): 6.2 ± 0.4 µM | GI50 (MCF 7/ADR cells; 1 hour pulse): > 100 µM | GI50 (MCF 7/ADR cells; 4 hour pulse): 79.1 ± 5.3 µM | GI50 (MCF 7/ADR cells; 8 hour pulse): 44 ± 1.1 µM | GI50 (MCF 7/ADR cells; 24 hour pulse): 20.8 ± 1.8 µM | GI50 (MCF 7/ADR cells; 48 hour pulse): 17.2 ± 0.1 µM | GI50 (MCF 7/ADR cells; 72 hour continuous exposure): 18.5 ± 0.4 µM

Structure (SMILES): CCCCCCCCCCCCC/C=C/[C@@H](O)[C@H](CO)NC(=O)CCCCC [C6-Ceramide, C6-ceramide, reference compound]
% Survival (by trypan blue assay) (U-937 cells [3]): 97% | GI50 (MCF7/ADR cells): 36 ± 0.88 µM | GI50 (MCF7/ADR cells; [9]): 36 ± 0.88 µM | GI50 (MCF7/ADR cells; listed as Cer-C6): 26.1 ± 0.85 µM | % Survival (by trypan blue exclusion assay) (RPMI-7666 cells [4]): 79% | GI50 (RPMI 7666 cells): 8.5 ± 3.5 µM | GI50 (LEWIS LUNG cells; Lewis lung carcinoma, 72 h): 9.6 ± 4.4 µM | GI50 (LEWIS LUNG cells; listed as Cer-C6): 5.81 µM | GI50 (CAKI 1 cells; Homo sapiens, CAKI-1, 72 h): 6.04 ± 0.23 µM | GI50 (CAKI 1 cells; listed as Cer-C6): 5.88 ± 0.1 µM | GI50 (C3H10T1/2 cells): 14 ± 2.5 µM | GI50 (P388/ADR cells): 12.7 ± 1.7 µM | GI50 (HT 29 cells; Homo sapiens, HT-29, 72 h): 4 ± 0.2 µM | GI50 (HT 29 cells; listed as Cer-C6): 4.67 ± 0.19 µM | GI50 (OVCAR 3 cells): 15.2 ± 1.77 µM | % Survival (by trypan blue exclusion assay) (P-388 cells [5]): 55.4% | GI50 (SKMEL 28 cells; Homo sapiens, SK-MEL-28, 72 h): 13.3 ± 2.51 µM | GI50 (SKMEL 28 cells; listed as Cer-C6): 11.55 ± 0.07 µM | % Survival (by trypan blue assay) (RPMI-7666 cells [6]): 89.2% | GI50 (MCF7 cells; Homo sapiens, MCF7, 72 h): 24.2 ± 8.5 µM | GI50 (MCF7 cells; listed as Cer-C6): 12.7 ± 0.14 µM | GI50 (P388 cells): 6.24 ± 0.3 µM | % Survival (by trypan blue assay) (P-388 cells [7]): 84.5% | GI50 (U937 cells): 7 ± 1.7 µM | GI50 (A549 cells [1]; Homo sapiens, A549, 72 h): 12 ± 4.8 µM | GI50 (A549 cells [1]; listed as Cer-C6): 8.08 ± 0.06 µM | % Survival (by trypan blue exclusion assay) (U-937 cells [8]): 82.6%

Structure (SMILES): CCCCCCCCCCCCC/C=C/[C@@H](O[Si](C)(C)C(C)(C)C)[C@H](CO[Si](C)(C)C(C)(C)C)NC(=O)CCCCC [1,3-DiTBDMS C6-Ceramide, 1,3 DiTBDMS C6 Cer]
GI50 (RPMI 7666 cells): > 200 µM | GI50 (LEWIS LUNG cells; Lewis lung carcinoma): > 200 µM | GI50 (U937 cells): 134 ± 28.8 µM | GI50 (A549 cells [1]; Homo sapiens): > 200 µM

GI50 (A549 cells [2]; 1 hour pulse): 31.2 ± 5 µM | GI50 (A549 cells [2]; 4 hour pulse): 12.8 ± 1 µM | GI50 (A549 cells [2]; 8 hour pulse): 6.7 ± 0.2 µM | GI50 (A549 cells [2]; 24 hour pulse): 5 ± 0.1 µM | GI50 (A549 cells [2]; 48 hour pulse): 4.8 ± 0.1 µM | GI50 (A549 cells [2]; 72 hour continuous exposure): 5 µM
Structure (SMILES): CCCCCCCCCCCCC/C=C/[C@@H](O)[C@H](CO)NCCCCCCCC
GI50 (MCF7/ADR cells; [9]): 4.88 ± 0.04 µM | GI50 (LEWIS LUNG cells; Lewis lung carcinoma, 72 h): 5.05 ± 0.02 µM | GI50 (CAKI 1 cells; Homo sapiens, CAKI-1, 72 h): 4.64 ± 0.07 µM | GI50 (HT 29 cells; Homo sapiens, HT-29, 72 h): 5.72 ± 0.24 µM | GI50 (OVCAR 3 cells): 5.41 ± 0.13 µM | GI50 (SKMEL 28 cells; Homo sapiens, SK-MEL-28, 72 h): 4.96 ± 0.03 µM | GI50 (MCF7 cells; Homo sapiens, MCF7, 72 h): 4.88 ± 0.11 µM | GI50 (A549 cells [1]; Homo sapiens, A549, 72 h): 4.91 ± 0.01 µM | GI50 (MCF 7/ADR cells; 1 hour pulse): 34.3 ± 4.2 µM | GI50 (MCF 7/ADR cells; 4 hour pulse): 14.2 ± 1.2 µM | GI50 (MCF 7/ADR cells; 8 hour pulse): 8.9 ± 0.2 µM | GI50 (MCF 7/ADR cells; 24 hour pulse): 4.8 ± 0.1 µM | GI50 (MCF 7/ADR cells; 48 hour pulse): 4.62 ± 0.1 µM | GI50 (MCF 7/ADR cells; 72 hour continuous exposure): 5 ± 0.1 µM
